# From US20260053811A1, “METHODS OF TREATING HYPERTENSION IN OBESE SUBJECTS” (Mineralys Therapeutics, Inc., priority 2022, published 2026)
# Test system: hypertensive subjects
# Assay: Seated automated office blood pressure (AOBP) in randomized, placebo-controlled, dose-ranging study
# Assay type: in vivo, human
# Design: Difference from placebo in change in blood pressure: unit not given here
# Protocol: A randomized, double-blinded, placebo-controlled, dose-ranging, multicenter study was conducted to evaluate the effect of orally administered Compound A HBr on blood pressure for the treatment of hypertension in male and female subjects ≥18 years of age.
# The study consists of two parts. For enrollment into Part 1 of the study, a subject's value of plasma renin activity (PRA) must be ≤1 ng/mL/h based on morning measurement. If the value of PRA >1 ng/mL/h based on morning measurement, then subjects may be eligible to enter Part 2 of the study.
# For Part 1, 163 enrolled subjects ≥18 years of age were randomized into 6 equal treatment groups (1:1:1:1:1:1) to 12.5 mg BID, 25 mg BID, 12.5 mg QD, 50 mg QD, 100 mg QD, or placebo. After a review of interim clinical data, the 2 lowest dose levels (12.5 mg QD and 12.5 mg BID) were stopped for future randomization due to a lack of consistent meaningful reduction of blood pressure, but the patients randomized to that point remained in the study through completion. Thus, after the review of interim clinical data, subjects were randomized into 4 equal treatment groups (1:1:1:1) to 25 mg BID, 50 mg QD, 100 mg QD, or placebo.
# For Part 2, 36 enrolled subjects ≥18 years of age were randomized (5:1) to either 100 mg QD Compound A HBr or placebo such that the Compound A HBr treatment group consisted of approximately 30 subjects and the placebo treatment group will consist of approximately 6 subjects.
# Subjects orally administered the assigned study drug (Compound A HBr or placebo) according to the assigned dosing regimen for 8 weeks beginning on Study Day 1. All subjects in Part 1 (regardless of dosing group) received BID dosing to preserve the integrity of the blind; active drug is administered as the morning dose for all QD dose groups. Subjects returned to the research facility or were seen by the clinical investigator or approved home health care professional at the end of Study Weeks 1, 2, 3, 4, 5, 6, 7, and 8 (±2 days) for protocol-defined efficacy and safety assessments and procedures, assessment of adverse events (AEs), and confirmation of compliance with study drug usage. Subjects also completed a telephone visit and blood pressure (BP) check at home approximately 3 days post last dose of study drug. Subjects attended up to 14 full clinic visits, including a pre-Screening visit, a Screening/start of Placebo Run-in visit, a second visit during Placebo Run-in, a clinic visit to initiate the ABPM procedure, a Randomization visit, 8 weekly visits during double-blind treatment, and an end-of-study visit scheduled 4 weeks after the last study treatment for final efficacy and safety assessments.
# An automated oscillometric sphygmomanometer device was used to measure the subjects' systolic and diastolic blood pressure in office after approximately 5 minutes of rest in the seated position.
# The primary endpoint is the change in office-measured (mean of last 2 of 5 unattended measurements using an automated oscillometric sphygmomanometer device after approximately 5 minutes of rest in the seated position) systolic blood pressure (SBP) from baseline to the end of Study Week 8.
# Secondary endpoints of this study were: • (a) Change in 24-hour ambulatory blood pressure monitoring (ABPM) parameters (systolic and diastolic) from baseline to the end of Study Week 7. • (b) Change in office-measured SBP from baseline to the end of Study Weeks 1, 2, 3, 4, 5, 6, and 7. • (c) Change in office-measured diastolic blood pressure (DBP) from baseline to the end of Study Weeks 1, 2, 3, 4, 5, 6, 7, and 8. • (d) Proportion of subjects who achieve office-measured BP of ≤130/80 mm Hg by the end of Study Week 8.
# [1] = 12.5 mg QD, Week 1, Part 1, FAS
# [2] = 12.5 mg QD, Week 2, Part 1, FAS
# [3] = 12.5 mg QD, Week 3, Part 1, FAS
# [4] = 12.5 mg QD, Week 4, Part 1, FAS
# [5] = 12.5 mg QD, Week 5, Part 1, FAS
# [6] = 12.5 mg QD, Week 6, Part 1, FAS
# [7] = 12.5 mg QD, Week 7, Part 1, FAS
# [8] = 12.5 mg QD, Week 8, Part 1, FAS
smiles,measurement,setting,value
CC(=O)N[C@H]1CC[C@H](NC(=O)CN2CCN(c3nncc(-c4ccc(C)cc4)n3)CC2)CC1 [Compound A HBr],Difference from placebo in change in blood pressure,"12.5 mg QD, BMI >30",−2.5
same,Difference from placebo in change in blood pressure,"12.5 mg QD, Baseline BPsys Low tertile",−10.7
same,Difference from placebo in change in blood pressure,"12.5 mg QD, Thiazide No",2.6
same,"Seated AOBP DBP change from baseline (CFB), Mean (SD)",[1],2.87 (12.31) mmHg
same,"Seated AOBP DBP, Mean (SD)",[1],85.26 (13.88) mmHg
same,"Seated AOBP SBP change from baseline (CFB), Mean (SD)",[1],−5.65 (13.96) mmHg
same,"Seated AOBP SBP, Mean (SD)",[1],141.43 (15.98) mmHg
same,"Seated AOBP DBP change from baseline (CFB), Mean (SD)",[2],0.68 (8.89) mmHg
same,"Seated AOBP DBP, Mean (SD)",[2],81.23 (9.21) mmHg
same,"Seated AOBP SBP change from baseline (CFB), Mean (SD)",[2],−1.86 (16.36) mmHg
same,"Seated AOBP SBP, Mean (SD)",[2],143.73 (17.32) mmHg
same,"Seated AOBP DBP change from baseline (CFB), Mean (SD)",[3],−1.20 (9.13) mmHg
same,"Seated AOBP DBP, Mean (SD)",[3],81.80 (13.73) mmHg
same,"Seated AOBP SBP change from baseline (CFB), Mean (SD)",[3],−4.15 (13.14) mmHg
same,"Seated AOBP SBP, Mean (SD)",[3],142.80 (18.14) mmHg
same,"LSM Δ with Placebo, seated AOBP DBP (MMRM)",[4],−1.96 mmHg
same,"Modelled (MMRM) LSM (SEM) change from baseline, seated AOBP DBP",[4],−2.50 (1.60) mmHg
same,"Seated AOBP DBP change from baseline (CFB), Mean (SD)",[4],−1.80 (9.84) mmHg
same,"Seated AOBP DBP, Mean (SD)",[4],81.20 (14.03) mmHg
same,"Seated AOBP SBP change from baseline (CFB), Mean (SD)",[4],−3.95 (15.74) mmHg
same,"Seated AOBP SBP, Mean (SD)",[4],143.00 (18.03) mmHg
same,"Seated AOBP DBP change from baseline (CFB), Mean (SD)",[5],0.82 (14.46) mmHg
same,"Seated AOBP DBP, Mean (SD)",[5],83.74 (14.32) mmHg
same,"Seated AOBP SBP change from baseline (CFB), Mean (SD)",[5],−3.53 (12.49) mmHg
same,"Seated AOBP SBP, Mean (SD)",[5],144.21 (13.11) mmHg
same,"Seated AOBP DBP change from baseline (CFB), Mean (SD)",[6],−4.17 (10.04) mmHg
same,"Seated AOBP DBP, Mean (SD)",[6],79.06 (13.07) mmHg
same,"Seated AOBP SBP change from baseline (CFB), Mean (SD)",[6],−8.64 (16.52) mmHg
same,"Seated AOBP DBP change from baseline (CFB), Mean (SD)",[7],−6.11 (12.05) mmHg
same,"Seated AOBP DBP, Mean (SD)",[7],77.11 (12.74) mmHg
same,"Seated AOBP SBP change from baseline (CFB), Mean (SD)",[7],−11.08 (19.26) mmHg
same,"Seated AOBP SBP, Mean (SD)",[7],136.56 (19.58) mmHg
same,"LSM Δ from Placebo, change from baseline in seated AOBP SBP (MMRM)",[8],−1.53 mmHg
same,"LSM Δ with Placebo, seated AOBP DBP (MMRM)",[8],−2.12 mmHg
same,"Modelled (MMRM) LSM (SEM) change from baseline, seated AOBP DBP",[8],−3.76 (2.02) mmHg
same,"Modelled (MMRM) LSM (SEM) change from baseline, seated AOBP SBP",[8],−5.63 (3.16) mmHg
same,"Seated AOBP DBP change from baseline (CFB), Mean (SD)",[8],−1.78 (13.33) mmHg
same,"Seated AOBP DBP, Mean (SD)",[8],81.44 (17.24) mmHg
same,"Seated AOBP SBP change from baseline (CFB), Mean (SD)",[8],−6.86 (19.85) mmHg
same,"Seated AOBP SBP, Mean (SD)",[8],140.78 (22.01) mmHg
same,Subjects with seated AOBP SBP/DBP ≤130/80 mmHg: No,[8],17 (73.9) n (%)
same,Subjects with seated AOBP SBP/DBP ≤130/80 mmHg: Yes,[8],6 (26.1) n (%)
same,Difference from placebo in change in blood pressure,"25 mg BID, BMI 25-30",−1.1
same,Difference from placebo in change in blood pressure,"25 mg BID, BMI >30",−9.1
same,Proportion of subjects with AOBP ≤130/80 mmHg,"25 mg BID, Part 1, Week 8",43.3%
same,Difference from placebo in change in blood pressure,"25 mg BID, Thiazide No",−4.7
